Laboratory results from patent US10118954B2, “Apelin analogues” (University of Ulster, priority 2014, dated 2018).

Test system: high fat fed NIH Swiss mice
Assay: 28 day long-term study of fatty acid apelin analogues, once daily i.p. administration
Format: in vivo
Text: NIH Swiss mice (Harlan UK Ltd., Blackthorne, UK) were derived from a nucleus colony obtained from the National Institute of Health, Bethesda, Md., USA. One group of mice were maintained on a standard rodent diet (10% fat, 30% protein, 60% carbohydrate; percent of total energy 12.99 kJ/g, Trouw Nutrition, Cheshire, UK) and used as a model of normal glycaemia. Other NIH Swiss mice were maintained on a high fat diet (45% fat, 20% protein, 35% carbohydrate; percent of total energy 26.15 kJ/g; Dietex, Essex, UK) from 8 weeks of age for 150 days to produce a model of diet induced obesity-diabetes. […] All mice were housed in an air-conditioned room maintained at 22±2° C. with a 12 h light: 12 h dark cycle (08:00-20:00 h), were singly caged, and selected for experimental groups according to body weight and non-fasted blood glucose. Drinking water and diet were freely available. All animal studies were performed in accordance with the UK Animals (Scientific Procedures) Act 1986.
For another 28 day long-term study of selected fatty acid apelin analogues administered once daily, normal control NIH Swiss (n=8) and high-fat fed NIH Swiss (n=8) were grouped and received once daily i.p. injections of saline vehicle (0.9% NaCl (w/v)) at 17:00 h over a 4 day run-in period. Following the run-in period, normal control (n=8) and high-fat fed mice (n=8) received once daily (17:00 h) i.p. administration of saline vehicle (0.9% NaCl (w/v)) for 28 days. Additional groups of high-fat fed mice (n=8) received once daily i.p. injections of (Lys^8gluPal)apelin-13-amide, pGlu(Lys^8gluPal)apelin-13-amide or liraglutide (each at 25 nmol/kg bw) over a 28 day treatment period.
Food intake, body weight, blood glucose and plasma insulin were monitored at intervals of 2-3 days throughout the run-in and 28 day treatment period. Blood samples for glucose and plasma insulin measurement were collected at intervals throughout the study from the cut tail vein of conscious mice. Following the 28 day treatment period, oral, i.p. and meal test glucose tolerance ([…].), and insulin sensitivity (25 U/kg bw) tests were performed. Glucose was measured using an Ascensia Contour meter and blood was collected and processed for plasma insulin analysis by radioimmunoassay. Body weight and fat mass was also assessed using the PIXImus DEXA scanner whilst energy expenditure, intake, food intake and feeding bouts were assessed using the CLAMS metabolic chamber. HbA1c was analysed post 28 days using Bayer A1C Now^+ Multi Test meter. Lipid profile test was obtained by using the iLab analyser. Cholesterol, triglyceride and HDL-cholesterol levels were measured, in plasma (3 μl), using the iLab analyser. LDL-cholesterol levels were obtained using the Friedewald equation=total cholesterol−HDL−(triglycerides/3).

[1] = once daily 25 nmol/kg bw, 28 days

With `CCCCCCCCCCCCCCCC(=O)N[C@@H](CCC(=O)NCCCC[C@H](NC(=O)[C@H](Cc1c[nH]cn1)NC(=O)[C@H](CO)NC(=O)[C@H](CC(C)C)NC(=O)[C@H](CCCNC(=N)N)NC(=O)[C@@H]1CCCN1C(=O)[C@H](CCCNC(=N)N)NC(=O)[C@@H]1CCC(=O)N1)C(=O)NCC(=O)N1CCC[C@H]1C(=O)N[C@@H](CCSC)C(=O)N1CCC[C@H]1C(=O)N[C@@H](Cc1ccccc1)C(N)=O)C(=O)O` [pGlu(Lys^8GluPAL)apelin-13-amide] the HbA1c levels (after 28 days treatment) was “significantly reduced”, the Percentage fat mass (after 28 days, DEXA analysis) was 30.1% and the Insulin sensitivity (after 28 days, insulin 25 U/kg bw) was “significantly improved”. For the same compound, the “Glucose tolerance and plasma insulin excursion in response to an i.p and oral glucose challenge” value (after the 28 day treatment period) was “significantly improved”, the “HDL-cholesterol levels compared to the lean control and high fat fed mice” value (once daily) was “significantly increased” and the Bodyweight reduction [1] was “approximately 7%”. The “Day of study at which bodyweight was significantly decreased” value [1] was 16 days, the “Day of study at which circulating blood glucose began to be significantly reduced and plasma insulin increased” value [1] was 13 days and the “Day of study at which food intake was significantly reduced” value [1] was 8 days. For the same compound, the “LDL-cholesterol levels compared to the high fat fed controls” value (once daily, Friedewald equation) was “significantly lowered”, the Plasma triglyceride levels (once daily, high-fat fed mice) was “significantly lower” and the “Total cholesterol levels in plasma” value (once daily, high-fat fed mice) was “significantly lower”.
